{"source": "ChEMBL document CHEMBL1201862", "about": "“PubChem BioAssay data set” (2004)", "key": {"[1]": {"target": "T1, Beta-lactamase (Pseudomonas aeruginosa, UniProt Q79MP6)", "T1 sequence (Q79MP6 whole entry)": "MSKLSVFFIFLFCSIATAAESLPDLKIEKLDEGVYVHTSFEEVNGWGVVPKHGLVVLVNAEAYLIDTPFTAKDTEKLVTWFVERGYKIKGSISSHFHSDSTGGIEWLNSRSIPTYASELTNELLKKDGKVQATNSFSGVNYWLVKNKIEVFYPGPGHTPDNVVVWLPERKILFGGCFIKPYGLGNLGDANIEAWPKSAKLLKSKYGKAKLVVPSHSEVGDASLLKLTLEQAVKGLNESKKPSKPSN", "experiment": "[…] counterscreen for selective VIM-2 inhibitors: dose response biochemical high throughput screening assay to identify inhibitors of IMP-1 metallo-beta-lactamase."}, "[2]": {"target": "T2, Beta Lactamase (Pseudomonas aeruginosa, UniProt Q932Y6)", "T2 sequence (Q932Y6 whole entry)": "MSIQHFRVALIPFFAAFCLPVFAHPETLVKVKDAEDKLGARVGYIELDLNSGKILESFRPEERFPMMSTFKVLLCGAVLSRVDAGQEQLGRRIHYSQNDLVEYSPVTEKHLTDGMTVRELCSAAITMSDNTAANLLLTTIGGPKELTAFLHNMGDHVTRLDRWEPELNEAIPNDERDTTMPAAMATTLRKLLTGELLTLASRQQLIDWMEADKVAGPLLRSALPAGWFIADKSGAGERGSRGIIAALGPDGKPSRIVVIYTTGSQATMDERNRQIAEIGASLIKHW", "experiment": "VIM-2 inhibitor FRET-based artefact check, dose response, artefact control for selective VIM-2 inhibitor project, biochemical, FRET readout, CCF2 substrate (AID 1926)"}, "[3]": {"target": "Beta-lactamase (Salmonella choleraesuis (strain SC-B67), UniProt Q5J463)", "sequence (Q5J463 whole entry)": "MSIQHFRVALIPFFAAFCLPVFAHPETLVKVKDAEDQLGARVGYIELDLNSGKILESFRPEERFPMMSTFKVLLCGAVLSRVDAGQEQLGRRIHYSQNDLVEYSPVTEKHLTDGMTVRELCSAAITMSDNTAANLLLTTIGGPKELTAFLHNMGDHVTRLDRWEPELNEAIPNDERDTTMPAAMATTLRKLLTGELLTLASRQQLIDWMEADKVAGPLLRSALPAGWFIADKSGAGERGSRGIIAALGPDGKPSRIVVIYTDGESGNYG", "experiment": "Epi-absorbance-based counterscreen for selective VIM-2 inhibitors: dose response biochemical high throughput screening assay to identify inhibitors of TEM-1 serine-beta-lactamase."}, "[4]": {"target": "T1, Beta-lactamase", "experiment": "IMP-1 metallo-beta-lactamase inhibitors, dose response, selectivity assay for VIM-2 inhibitor project, biochemical, epi-absorbance (AID 1920)"}, "[5]": {"target": "T2, Beta Lactamase", "experiment": "VIM-2 metallo-beta-lactamase inhibitor potency, dose response, biochemical, epi-absorbance readout, selective inhibitors (AID 1919)"}, "[6]": {"target": "Dual specificity protein phosphatase 3 (Homo sapiens, UniProt P51452)", "sequence (P51452 whole entry)": "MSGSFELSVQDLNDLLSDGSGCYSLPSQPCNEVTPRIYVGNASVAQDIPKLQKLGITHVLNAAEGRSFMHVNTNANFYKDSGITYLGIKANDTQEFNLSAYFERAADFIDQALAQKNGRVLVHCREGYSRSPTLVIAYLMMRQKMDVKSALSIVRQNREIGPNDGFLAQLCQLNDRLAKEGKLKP", "experiment": "VHR phosphatase inhibition, dose response, selectivity assay for STEP inhibitor project, biochemical (AID 602374)", "format": "functional", "details": "read-out: IC50_Mean"}, "[7]": {"experiment": "HEK293T cytotoxicity, dose response, cytotoxicity control for miR-122 modulator project, cell-based, inhibitor set, cherry-pick, set 2 (AID 720697)", "format": "functional"}, "[8]": {"target": "Prothrombin (Bos taurus, UniProt P00735)", "experiment": "thrombin inhibition, dose response, biochemical, fluorescence polarization, uHTS hits (AID 602369)", "format": "functional"}, "[9]": {"target": "26S proteasome non-ATPase regulatory subunit 14 (Homo sapiens, UniProt O00487)", "sequence (O00487 whole entry)": "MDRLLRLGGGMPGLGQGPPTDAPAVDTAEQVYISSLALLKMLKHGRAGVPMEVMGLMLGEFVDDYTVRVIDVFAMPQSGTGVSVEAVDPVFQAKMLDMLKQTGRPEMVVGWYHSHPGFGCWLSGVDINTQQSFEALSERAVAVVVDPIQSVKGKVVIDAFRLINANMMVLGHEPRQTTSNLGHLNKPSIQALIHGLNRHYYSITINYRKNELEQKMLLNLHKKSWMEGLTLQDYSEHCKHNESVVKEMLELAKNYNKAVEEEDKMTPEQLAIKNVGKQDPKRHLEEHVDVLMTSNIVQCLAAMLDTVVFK", "experiment": "inhibition of proteasome subunit RPN11 – biochemical, fluorescence polarization, uHTS hits, confirmation (AID 602368)", "format": "functional"}, "[10]": {"experiment": "HEK293T cytotoxicity, dose response, cytotoxicity control for miR-122 modulator project, cell-based, activator set, cherry-pick (AID 720690);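 further: HEK293T human cells scored for general mammalian cytotoxicity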", "format": "functional"}, "[11]": {"target": "T3, Tyrosine-protein phosphatase non-receptor type 22 (Homo sapiens, UniProt Q9Y2R2)", "T3 sequence (Q9Y2R2 whole entry)": "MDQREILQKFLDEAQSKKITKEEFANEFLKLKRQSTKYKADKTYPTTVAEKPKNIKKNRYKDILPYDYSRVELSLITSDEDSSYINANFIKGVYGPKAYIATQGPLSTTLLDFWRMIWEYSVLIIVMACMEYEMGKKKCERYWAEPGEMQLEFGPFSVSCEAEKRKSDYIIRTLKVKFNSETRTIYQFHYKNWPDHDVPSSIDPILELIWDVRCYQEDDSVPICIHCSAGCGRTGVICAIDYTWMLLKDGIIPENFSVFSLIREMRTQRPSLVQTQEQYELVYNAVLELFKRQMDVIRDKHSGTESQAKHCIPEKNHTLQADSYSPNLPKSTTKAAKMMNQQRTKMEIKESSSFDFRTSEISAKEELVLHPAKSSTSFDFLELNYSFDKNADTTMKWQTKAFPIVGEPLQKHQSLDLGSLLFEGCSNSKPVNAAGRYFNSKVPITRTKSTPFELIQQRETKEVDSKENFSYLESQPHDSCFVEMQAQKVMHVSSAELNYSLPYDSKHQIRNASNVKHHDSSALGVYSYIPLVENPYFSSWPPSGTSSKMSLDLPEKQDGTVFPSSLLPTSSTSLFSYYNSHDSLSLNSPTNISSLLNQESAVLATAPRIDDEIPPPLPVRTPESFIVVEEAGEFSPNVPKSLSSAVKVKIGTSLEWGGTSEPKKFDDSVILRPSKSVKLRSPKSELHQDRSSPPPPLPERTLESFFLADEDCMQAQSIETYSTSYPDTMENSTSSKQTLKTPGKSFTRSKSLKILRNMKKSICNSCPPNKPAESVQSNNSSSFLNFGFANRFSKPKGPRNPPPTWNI", "experiment": "PTPN22 phosphatase inhibition, dose response, selectivity assay for STEP inhibitor project, biochemical (AID 624241)", "format": "functional"}, "[12]": {"target": "Tyrosine-protein phosphatase non-receptor type 11 (Homo sapiens, UniProt Q06124)", "sequence (Q06124 whole entry)": "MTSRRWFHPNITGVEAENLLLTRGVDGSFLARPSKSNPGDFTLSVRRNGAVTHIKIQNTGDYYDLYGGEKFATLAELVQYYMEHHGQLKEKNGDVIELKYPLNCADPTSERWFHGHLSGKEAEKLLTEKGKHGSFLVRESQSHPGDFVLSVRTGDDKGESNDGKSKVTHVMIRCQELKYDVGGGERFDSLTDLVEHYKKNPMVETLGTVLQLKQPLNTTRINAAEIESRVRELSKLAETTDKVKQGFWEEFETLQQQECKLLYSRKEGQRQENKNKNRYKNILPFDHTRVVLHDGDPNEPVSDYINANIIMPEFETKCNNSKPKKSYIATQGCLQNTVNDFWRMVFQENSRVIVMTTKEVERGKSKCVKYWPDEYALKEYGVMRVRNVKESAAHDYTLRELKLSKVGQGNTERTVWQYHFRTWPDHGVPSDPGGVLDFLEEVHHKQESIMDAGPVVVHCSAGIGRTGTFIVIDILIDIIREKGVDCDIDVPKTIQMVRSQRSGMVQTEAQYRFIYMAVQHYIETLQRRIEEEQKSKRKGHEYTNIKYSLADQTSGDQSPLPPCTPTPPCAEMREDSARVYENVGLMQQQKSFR", "experiment": "SHP2 phosphatase inhibition, dose response, selectivity assay for STEP inhibitor project, biochemical (AID 602367)", "format": "functional", "details": "read-out: IC50_Mean"}, "[13]": {"target": "Tyrosine-protein phosphatase non-receptor type 5 (Homo sapiens, UniProt P54829)", "sequence (P54829 whole entry)": "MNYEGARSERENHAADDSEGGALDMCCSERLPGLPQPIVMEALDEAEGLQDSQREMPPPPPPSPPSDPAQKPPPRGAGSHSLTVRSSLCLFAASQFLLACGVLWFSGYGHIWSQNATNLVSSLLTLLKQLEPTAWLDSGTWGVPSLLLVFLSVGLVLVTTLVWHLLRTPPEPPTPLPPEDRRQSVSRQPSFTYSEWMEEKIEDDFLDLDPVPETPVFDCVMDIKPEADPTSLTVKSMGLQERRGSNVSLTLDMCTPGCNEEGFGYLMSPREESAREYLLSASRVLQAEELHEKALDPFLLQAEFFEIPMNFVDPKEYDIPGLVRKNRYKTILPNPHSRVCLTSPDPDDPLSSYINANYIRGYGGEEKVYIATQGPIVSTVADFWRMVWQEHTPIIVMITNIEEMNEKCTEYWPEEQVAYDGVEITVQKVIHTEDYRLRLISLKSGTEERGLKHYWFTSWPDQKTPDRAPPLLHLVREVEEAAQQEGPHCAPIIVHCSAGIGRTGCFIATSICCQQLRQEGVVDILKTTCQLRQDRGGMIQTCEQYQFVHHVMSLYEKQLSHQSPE", "experiment": "STEP phosphatase inhibitors, confirmation, biochemical, fluorescence intensity, uHTS hits (AID 602372)", "format": "functional", "details": "read-out: IC50_Mean"}, "[14]": {"target": "72 kDa type IV collagenase (Homo sapiens, UniProt P08253)", "sequence (P08253 whole entry)": "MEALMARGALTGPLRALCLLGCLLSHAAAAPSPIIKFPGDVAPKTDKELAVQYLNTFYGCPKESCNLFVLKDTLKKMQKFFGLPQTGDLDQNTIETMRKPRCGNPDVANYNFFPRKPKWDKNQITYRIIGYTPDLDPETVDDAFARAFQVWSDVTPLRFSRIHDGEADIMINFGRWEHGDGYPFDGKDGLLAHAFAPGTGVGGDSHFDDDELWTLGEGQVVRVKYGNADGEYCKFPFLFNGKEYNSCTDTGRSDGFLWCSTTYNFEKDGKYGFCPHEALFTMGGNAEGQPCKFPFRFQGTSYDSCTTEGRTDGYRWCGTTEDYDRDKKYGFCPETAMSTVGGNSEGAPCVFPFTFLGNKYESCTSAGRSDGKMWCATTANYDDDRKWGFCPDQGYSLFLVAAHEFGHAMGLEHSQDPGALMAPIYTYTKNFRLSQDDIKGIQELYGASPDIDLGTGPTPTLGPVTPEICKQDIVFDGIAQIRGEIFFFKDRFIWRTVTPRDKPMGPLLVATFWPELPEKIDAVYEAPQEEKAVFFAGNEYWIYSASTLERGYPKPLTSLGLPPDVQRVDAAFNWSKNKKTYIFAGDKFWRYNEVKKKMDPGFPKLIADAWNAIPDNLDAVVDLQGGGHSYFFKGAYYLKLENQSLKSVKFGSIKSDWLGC", "experiment": "Dose Response validation of uHTS RPN11 inhibitor hits using a MMP-2 Fluorescence assay.", "format": "functional"}, "[15]": {"target": "T4, Apoptotic protease-activating factor 1 (Homo sapiens, UniProt O14727)", "T4 sequence (O14727 whole entry)": "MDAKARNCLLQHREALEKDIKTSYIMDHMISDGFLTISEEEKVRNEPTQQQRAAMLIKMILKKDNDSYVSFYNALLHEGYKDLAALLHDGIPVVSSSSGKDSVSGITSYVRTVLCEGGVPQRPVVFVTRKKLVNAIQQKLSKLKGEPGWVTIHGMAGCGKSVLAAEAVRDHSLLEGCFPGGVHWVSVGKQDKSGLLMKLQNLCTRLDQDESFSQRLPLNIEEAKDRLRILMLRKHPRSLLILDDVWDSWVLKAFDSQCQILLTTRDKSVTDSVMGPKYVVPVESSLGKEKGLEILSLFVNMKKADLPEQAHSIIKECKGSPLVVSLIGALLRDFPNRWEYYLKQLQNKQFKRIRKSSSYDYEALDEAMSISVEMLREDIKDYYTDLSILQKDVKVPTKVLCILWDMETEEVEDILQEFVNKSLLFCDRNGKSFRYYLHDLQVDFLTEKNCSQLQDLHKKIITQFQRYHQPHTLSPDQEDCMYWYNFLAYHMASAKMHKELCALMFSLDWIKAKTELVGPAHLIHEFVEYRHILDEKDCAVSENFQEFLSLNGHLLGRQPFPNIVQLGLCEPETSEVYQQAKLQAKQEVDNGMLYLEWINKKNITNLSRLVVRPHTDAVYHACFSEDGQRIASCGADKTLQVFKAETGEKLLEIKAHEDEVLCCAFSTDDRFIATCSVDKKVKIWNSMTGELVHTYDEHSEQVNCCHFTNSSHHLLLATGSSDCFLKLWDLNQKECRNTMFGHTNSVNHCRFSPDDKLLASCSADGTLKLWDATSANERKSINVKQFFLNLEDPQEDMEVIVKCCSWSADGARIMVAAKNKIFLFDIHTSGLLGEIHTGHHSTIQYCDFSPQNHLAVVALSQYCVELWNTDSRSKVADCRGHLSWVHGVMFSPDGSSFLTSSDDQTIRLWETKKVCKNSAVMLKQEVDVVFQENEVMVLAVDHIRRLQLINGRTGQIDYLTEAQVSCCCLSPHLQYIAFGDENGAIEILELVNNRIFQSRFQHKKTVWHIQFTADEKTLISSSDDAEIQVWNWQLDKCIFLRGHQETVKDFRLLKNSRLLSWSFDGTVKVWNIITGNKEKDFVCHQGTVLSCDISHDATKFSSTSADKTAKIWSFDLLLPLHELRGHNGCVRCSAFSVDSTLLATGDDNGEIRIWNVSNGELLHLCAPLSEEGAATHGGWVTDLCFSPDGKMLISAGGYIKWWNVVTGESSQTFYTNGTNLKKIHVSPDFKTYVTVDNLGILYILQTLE", "experiment": "SAR analysis of small molecule Activators of Apaf-1 in a Fluorescent assay.", "format": "functional", "details": "read-out: EC50_Mean"}, "[16]": {"target": "T5, Heat shock factor protein 1 (Mus musculus, UniProt P38532)", "T5 sequence (P38532 whole entry)": "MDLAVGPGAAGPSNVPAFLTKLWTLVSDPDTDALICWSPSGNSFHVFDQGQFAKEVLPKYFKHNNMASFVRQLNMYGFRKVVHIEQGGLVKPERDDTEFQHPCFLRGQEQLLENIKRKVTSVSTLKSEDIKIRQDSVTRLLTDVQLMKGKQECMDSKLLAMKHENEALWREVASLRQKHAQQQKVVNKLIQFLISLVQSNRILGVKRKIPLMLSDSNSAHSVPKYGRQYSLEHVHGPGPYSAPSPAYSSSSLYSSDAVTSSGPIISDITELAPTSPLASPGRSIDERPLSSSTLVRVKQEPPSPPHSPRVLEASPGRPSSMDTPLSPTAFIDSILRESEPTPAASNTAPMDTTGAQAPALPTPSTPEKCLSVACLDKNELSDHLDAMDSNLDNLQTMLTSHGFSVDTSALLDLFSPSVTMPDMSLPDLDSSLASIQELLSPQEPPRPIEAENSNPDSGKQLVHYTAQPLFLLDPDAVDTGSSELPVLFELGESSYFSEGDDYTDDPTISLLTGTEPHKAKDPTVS", "experiment": "inhibition of MG132-induced HSE-luciferase signal, confirmation, cell-based, NIH3T3, luminescence, dose retest (AID 2382);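 further: NIH3T3 fibroblasts with HSF1-driven luciferase reporter stressed by proteasome inhibitor MG132; luminescence from HSF1-driven luciferase expression after 8 hours of MG132 stress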", "format": "functional"}, "[17]": {"experiment": "HepG2 cell cytotoxicity, dose response, cytotoxicity control for Shn3 inhibitor project, CellTiter-Glo, cherry-picked (AID 624134)", "format": "functional, cell-based"}, "[18]": {"experiment": "Shn3 3'UTR reporter inhibitors, dose response, cell-based, Clone20 osteoblasts, firefly luciferase, cherry-picked (AID 624132)", "format": "functional"}, "[19]": {"experiment": "Fluorescence-based cell-based high throughput dose response assay for inhibitors of the interaction of nucleotide-binding oligomerization domain containing 2 (NOD2) and the receptor-interacting serine-threonine kinase 2 (RIPK2).", "format": "functional", "details": "Homo sapiens"}, "[20]": {"target": "Paired box protein Pax-8 (Homo sapiens, UniProt Q06710)", "sequence (Q06710 whole entry)": "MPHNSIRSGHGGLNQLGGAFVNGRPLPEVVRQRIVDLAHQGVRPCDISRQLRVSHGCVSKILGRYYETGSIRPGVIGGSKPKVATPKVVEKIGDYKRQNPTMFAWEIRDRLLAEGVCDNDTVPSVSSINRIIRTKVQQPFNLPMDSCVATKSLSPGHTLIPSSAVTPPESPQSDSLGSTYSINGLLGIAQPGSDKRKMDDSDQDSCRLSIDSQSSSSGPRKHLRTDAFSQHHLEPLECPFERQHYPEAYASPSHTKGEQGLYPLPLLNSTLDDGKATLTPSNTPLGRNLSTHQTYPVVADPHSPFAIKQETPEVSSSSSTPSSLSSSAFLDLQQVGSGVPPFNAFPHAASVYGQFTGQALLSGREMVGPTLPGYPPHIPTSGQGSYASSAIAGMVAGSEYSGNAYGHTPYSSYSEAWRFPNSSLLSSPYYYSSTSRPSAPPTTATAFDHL", "experiment": "inhibitors of PAX8-driven TPO luciferase reporter, dose response, RMG-I cells, cherry-pick (AID 687027);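 further: luciferase reporter driven by Pax8 target thyroperoxidase promoter measured by SteadyGlo luminescence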", "format": "functional, cell-based"}, "[21]": {"target": "T6, Protein disulfide-isomerase (Homo sapiens, UniProt P07237)", "T6 sequence (P07237 whole entry)": "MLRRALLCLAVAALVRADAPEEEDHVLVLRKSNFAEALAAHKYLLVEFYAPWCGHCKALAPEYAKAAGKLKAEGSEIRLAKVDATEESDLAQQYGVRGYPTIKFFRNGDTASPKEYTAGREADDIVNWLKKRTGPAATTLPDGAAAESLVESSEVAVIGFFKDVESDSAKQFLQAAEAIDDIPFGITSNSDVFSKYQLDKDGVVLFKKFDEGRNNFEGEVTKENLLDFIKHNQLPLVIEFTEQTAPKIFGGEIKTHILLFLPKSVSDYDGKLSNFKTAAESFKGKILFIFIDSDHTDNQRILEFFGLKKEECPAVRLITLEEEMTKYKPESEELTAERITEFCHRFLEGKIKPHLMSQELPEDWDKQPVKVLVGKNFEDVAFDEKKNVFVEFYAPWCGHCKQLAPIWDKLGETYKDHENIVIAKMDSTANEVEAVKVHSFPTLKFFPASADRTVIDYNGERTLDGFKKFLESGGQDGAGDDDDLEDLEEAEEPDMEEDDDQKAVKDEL", "experiment": "PDI inhibitors, insulin turbidity readout, dose response, biochemical, absorbance, cherry-picked samples, set 2 (AID 624274)", "format": "functional"}, "[22]": {"experiment": "control 3'UTR Renilla luciferase suppression, dose response, counter-screen for Shn3 inhibitor project, cell-based, Clone20-Shn3RL, cherry-picked (AID 624133)", "format": "functional"}, "[23]": {"target": "T2, Beta Lactamase", "experiment": "beta-lactamase reporter inhibitor potency, dose response, artefact control for NOD2-RIPK2 interaction inhibitor project, BLA reporter cells, FRET fluorescence (AID 651552)", "format": "functional, cell-based"}, "[24]": {"target": "T6, Protein disulfide-isomerase", "experiment": "PDI inhibitors, insulin aggregation turbidity, dose response, biochemical, absorbance, cherry-picked samples (AID 602350)", "format": "functional"}, "[25]": {"experiment": "non-specific cell cytotoxicity, dose response, cytotoxicity control for PAX8 inhibitor project, plate reader, dry powder samples (AID 743021)", "format": "functional, cell-based"}, "[26]": {"experiment": "miR-122 activators in hepatoma reporter cells, dose response, cell-based, Huh7 psiCHECK-miR122, Renilla luciferase, cherry-picked (AID 651956);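 further: huh7 hepatoma cells stably carrying a psiCHECK-2 miR-122 sensor plasmid; renilla luciferase signal reporting endogenous miR-122 activity after 48 h compound exposure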", "format": "functional"}}, "note": "The source made the active and inactive calls.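 Wherever EC50 Mean is given: caspase-3 cleavage of fluorogenic Rh110 DEVD substrate downstream of apoptosome activation.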", "data": [{"molecule": "CCc1nnc(S)n1/N=C/C(C)=C\\c1ccccc1", "values": [{"measurement": "IC50", "setting": "[1]", "value": "> 59.6 µM (inactive)"}, {"measurement": "IC50", "setting": "[2]", "value": "0.332 µM (active)"}, {"measurement": "IC50", "setting": "[3]", "value": "> 59.6 µM (inactive)"}, {"measurement": "IC50", "setting": "[4]", "value": "> 59.6 µM (inactive)"}, {"measurement": "IC50", "setting": "[5]", "value": "1.23 µM (active)"}]}, {"molecule": "COc1cc(Cl)cc(/C=N\\NC(=O)c2ccc3c(c2)OCO3)c1O", "values": [{"measurement": "IC50", "setting": "[6]", "value": "5.02 µM (active)"}, {"measurement": "AC50", "setting": "[7]", "value": "5.99 µM (active)"}, {"measurement": "IC50", "setting": "[8]", "value": "65.6 µM (active)"}, {"measurement": "IC50", "setting": "[9]", "value": "21.5 µM (active)"}, {"measurement": "AC50", "setting": "[10]", "value": "16.6 µM (active)"}, {"measurement": "IC50", "setting": "[11]", "value": "> 100 µM (inactive)"}, {"measurement": "IC50", "setting": "[12]", "value": "4.16 µM (active)"}, {"measurement": "IC50", "setting": "[13]", "value": "9.73 µM (active)"}, {"measurement": "IC50", "setting": "[14]", "value": "> 100 µM (inactive)"}]}, {"molecule": "Cc1c(NC(=O)C2CC(c3ccc(F)cc3)=NO2)c(=O)n(-c2ccccc2)n1C", "note": "(configuration not stated)", "values": [{"measurement": "EC50", "setting": "[15]", "value": "> 100 µM (inactive)"}, {"measurement": "EC50", "setting": "[16]", "value": "> 195 µM (not active)"}]}, {"molecule": "CS(=O)(=O)c1ccc(C(=O)OCC(=O)N2CCN(CCC3CCCCC3)CC2)cc1[N+](=O)[O-]", "values": [{"measurement": "AC50", "setting": "[17]", "value": "8.73 µM (active)"}, {"measurement": "AC50", "setting": "[18]", "value": "2.41 µM (active)"}, {"measurement": "IC50", "setting": "[19]", "value": "1.84 µM (active)"}, {"measurement": "AC50", "setting": "[20]", "value": "6.68 µM (active)"}, {"measurement": "AC50", "setting": "[21]", "value": "0.009 µM (active)"}, {"measurement": "AC50", "setting": "[22]", "value": "5.81 µM (active)"}, {"measurement": "IC50", "setting": "[23]", "value": "11.6 µM (inactive)"}, {"measurement": "AC50", "setting": "[24]", "value": "< 0.009 µM (active)"}, {"measurement": "AC50", "setting": "[25]", "value": "27 µM (active)"}]}, {"molecule": "C[C@@H]1CN([C@@H](C)CO)C(=O)c2cc(C#CC3CCCCC3)cnc2O[C@H]1CN(C)S(=O)(=O)c1cccc(F)c1", "values": [{"measurement": "AC50", "setting": "[10]", "value": "24.6 µM (active)"}, {"measurement": "AC50", "setting": "[26]", "value": "13.9 µM (active)"}]}]}
